The source of these data is patent US11136317B2, “NADPH oxidase 4 inhibitors” (ACTELION PHARMACEUTICALS LTD, priority 2015, dated 2021).

SMILES strings stand for the structures.

For this assay, the target named is T1, human NOX4 (Homo sapiens, UniProt Q9NPH5).
T1 construct: The full-length human NOX4 (NM_016931.3) transcript was cloned; expressed in transfected cells
T1 sequence (Q9NPH5 1-578): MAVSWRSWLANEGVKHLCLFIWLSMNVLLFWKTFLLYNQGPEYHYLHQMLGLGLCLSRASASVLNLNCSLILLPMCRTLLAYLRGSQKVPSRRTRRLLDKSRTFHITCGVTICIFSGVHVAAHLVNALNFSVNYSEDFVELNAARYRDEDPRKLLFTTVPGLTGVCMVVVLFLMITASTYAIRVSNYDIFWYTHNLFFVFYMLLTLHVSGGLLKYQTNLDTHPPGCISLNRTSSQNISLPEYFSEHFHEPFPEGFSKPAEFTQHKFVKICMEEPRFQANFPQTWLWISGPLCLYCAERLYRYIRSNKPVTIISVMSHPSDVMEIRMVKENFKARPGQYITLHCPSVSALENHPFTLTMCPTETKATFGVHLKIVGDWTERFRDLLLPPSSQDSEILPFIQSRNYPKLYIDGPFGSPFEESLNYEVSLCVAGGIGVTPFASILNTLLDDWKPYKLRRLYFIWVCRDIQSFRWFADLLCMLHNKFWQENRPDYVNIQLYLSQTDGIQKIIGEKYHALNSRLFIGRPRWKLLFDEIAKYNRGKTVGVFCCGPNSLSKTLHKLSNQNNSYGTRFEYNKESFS
T1 sequence (P13498 1-195 partner): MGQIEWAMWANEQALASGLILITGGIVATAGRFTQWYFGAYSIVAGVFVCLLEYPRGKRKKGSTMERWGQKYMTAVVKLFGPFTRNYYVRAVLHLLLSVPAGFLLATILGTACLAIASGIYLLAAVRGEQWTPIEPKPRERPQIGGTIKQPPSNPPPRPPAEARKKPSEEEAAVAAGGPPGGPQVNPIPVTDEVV
Nature of the assay: Amplex Red activity assay (cellular H2O2 formation in hNOX4 T-REx-293 cells). Type of assay: cell-based. The following applies: tet-induced 24 h, extracellular H2O2 by Amplex Red, 60 min 25° C., geometric mean if determined several times. The protocol: The nucleotide sequence and the amino acid sequence for the human NOX4 (Entrez Gene ID 50507) is known in the art and are published. The potency and efficacy of the compounds of Formula (I) are assessed for their potential to inhibit the formation of ROS in a cellular assay.
The full-length human NOX4 (NM_016931.3) transcript was cloned into the pDONR™221 vector (Life Technologies™) in order to generate, by site-specific integration according to the recommendation of the manufacturer (Life Technologies™), a recombinant pJTI™ R4 DEST CMV-TO vector containing the NOX4 coding information controlled by tetracycline (tet) responsive tet-on cytomegalovirus promoter (hNOX4 pDEST).
Modified human embryonic kidney cells overexpressing a tet receptor (Jump-In™ T-REx™ HEK293; Life Technologies™) were transfected with the NOX4-containing tet-on vector (hNOX4 pDEST) to generate a stable recombinant cell pool (hNOX4 T-REx-293). hNOX4 T-REx-293 cells were cultured in DMEM containing 4.5 g/L glucose supplemented with 10% fetal calf serum, penicillin (100 U/mL), streptomycin (100 μg/mL), geneticin (1 mg/mL), and blasticidin (5 μg/mL) at 37° C. in air with 5% CO2. Human Nox4 expression was induced with tet (1 μg/mL) for 24 h and extracellular H2O2 was quantified using the Amplex Red reagent (Life Technologies™).
Compounds were prepared as 10 mM stock solution in DMSO vehicle, then diluted in 384-well plates using DMSO followed by a transfer of the dilutions into the assay plate. As a control, diphenylene iodonium was included at a final concentration of 10 μM. Compounds were tested at 10 concentrations in the range from 50 μM highest to 100 nM lowest.
Cellular H2O2 formation was measured using the Amplex Red reagent. […] Cells were seeded into 384-well clear bottom plates at a density of 20 000 cells per well in presence or absence of compounds. […] All wells contained 1.25% of DMSO. The plates were kept at 25° C. for 60 min. The amount of produced resorufin was detected with the Synergy™ Mx microplate reader (BioTek) with excitation and emission wavelengths set to 550 nm and 600 nm, respectively. Fluorescence was measured for each well and the fluorescence at 600 nm wavelength was compared to the fluorescence of the vehicle in place of compound. Inhibitory activities of example compounds were determined by calculating the IC50 value (the concentration of compound needed to inhibit 50% of the enzyme activity). The calculated IC50 values may fluctuate depending on the daily cellular assay performance. Fluctuations of this kind are known to those skilled in the art.
Regarding `O=C(Nc1ccc2oc(N3CCC3c3ccccc3)nc2c1)c1ccc2c(c1)CCO2` (racemic) [Example 62, rac-2,3-Dihydro-benzofuran-5-carboxylic acid [2-(2-phenyl-azetidin-1-yl)-benzooxazol-5-yl]-amide], the IC50 turned out to be 702 nM.

`O=C(Nc1ccc2sc(N3CCC3c3ccccc3)nc2c1)c1ccc2c(c1)CCO2` (racemic) [Example 111, rac-2,3-Dihydro-benzofuran-5-carboxylic acid [2-(2-phenyl-azetidin-1-yl)-benzothiazol-5-yl]-amide]: the IC50 was found to be 1090 nM.

For `O=C(Nc1ccc2oc(N3CCCCC3)nc2c1)c1ccc2c(c1)CCO2` [Example 2, 2,3-Dihydro-benzofuran-5-carboxylic acid (2-piperidin-1-yl-benzooxazol-5-yl)-amide], the IC50 is 639 nM.

With `O=C(Nc1ccc2oc(N3CCCC3)nc2c1)c1ccc2c(c1)CCO2` [Example 3, 2,3-Dihydro-benzofuran-5-carboxylic acid (2-pyrrolidin-1-yl-benzooxazol-5-yl)-amide], the IC50 was 899 nM.

`CN1CCN(c2nc3cc(NC(=O)c4ccc5c(c4)CCO5)ccc3o2)CC1` [Example 4, 2,3-Dihydro-benzofuran-5-carboxylic acid [2-(4-methyl-piperazin-1-yl)-benzooxazol-5-yl]-amide]: the IC50 is 967 nM.

Turning to `O=C(Nc1ccc2oc(N3CCOCC3)nc2c1)c1ccc2c(c1)CCO2` [Example 5, 2,3-Dihydro-benzofuran-5-carboxylic acid (2-morpholin-4-yl-benzooxazol-5-yl)-amide], the IC50 was 627 nM.

Turning to `CCN(CC)c1nc2cc(NC(=O)c3ccc4c(c3)CCO4)ccc2o1` [Example 6, 2,3-Dihydro-benzofuran-5-carboxylic acid (2-diethylamino-benzooxazol-5-yl)-amide], the IC50 is 559 nM.

In the case of `O=C(Nc1ccc2oc(N3CCC(F)(F)CC3)nc2c1)c1ccc2c(c1)CCO2` [Example 7, 2,3-Dihydro-benzofuran-5-carboxylic acid [2-(4,4-difluoro-piperidin-1-yl)-benzooxazol-5-yl]-amide], the IC50 is 358 nM.

In the case of `O=C(Nc1ccc2oc(N3CC(F)(F)C3)nc2c1)c1ccc2c(c1)CCO2` [Example 8, 2,3-Dihydro-benzofuran-5-carboxylic acid [2-(3,3-difluoro-azetidin-1-yl)-benzooxazol-5-yl]-amide], the IC50 worked out at 1890 nM.

Consider `O=C(Nc1ccc2oc(N3CCC(F)(F)C3)nc2c1)c1ccc2c(c1)CCO2` [Example 9, 2,3-Dihydro-benzofuran-5-carboxylic acid [2-(3,3-difluoro-pyrrolidin-1-yl)-benzooxazol-5-yl]-amide], for which the IC50 came to 573 nM.

Turning to `COC1CCN(c2nc3cc(NC(=O)c4ccc5c(c4)CCO5)ccc3o2)C1` (stereo not shown) [Example 10, 2,3-Dihydro-benzofuran-5-carboxylic acid [2-(3-methoxy-pyrrolidin-1-yl)-benzooxazol-5-yl]-amide], the IC50 was 711 nM.

For the molecule `COC1CCN(c2nc3cc(NC(=O)c4ccc5c(c4)CCO5)ccc3o2)CC1` [Example 11, 2,3-Dihydro-benzofuran-5-carboxylic acid [2-(4-methoxy-piperidin-1-yl)-benzooxazol-5-yl]-amide], the IC50 amounted to 358 nM.

As to `CC1(O)CN(c2nc3cc(NC(=O)c4ccc5c(c4)CCO5)ccc3o2)C1` [Example 12, 2,3-Dihydro-benzofuran-5-carboxylic acid [2-(3-hydroxy-3-methyl-azetidin-1-yl)-benzooxazol-5-yl]-amide], the IC50 came out at 688 nM.

For `CN(C)CCN(C)c1nc2cc(NC(=O)c3ccc4c(c3)CCO4)ccc2o1` [Example 13, 2,3-Dihydro-benzofuran-5-carboxylic acid {2-[(2-dimethylamino-ethyl)-methyl-amino]-benzooxazol-5-yl}-amide; compound with formic acid], the IC50 came to 5360 nM.

In the case of `CN(C)C1CCN(c2nc3cc(NC(=O)c4ccc5c(c4)CCO5)ccc3o2)CC1` [Example 14, 2,3-Dihydro-benzofuran-5-carboxylic acid [2-(4-dimethylamino-piperidin-1-yl)-benzooxazol-5-yl]-amide; compound with formic acid], the IC50 is 1700 nM.

On to `O=C(Nc1ccc2oc(N3CCC34COC4)nc2c1)c1ccc2c(c1)CCO2` [Example 15, 2,3-Dihydro-benzofuran-5-carboxylic acid [2-(6-oxa-1-aza-spiro[3.3]hept-1-yl)-benzooxazol-5-yl]-amide], for which the IC50 came to 405 nM.

Consider `O=C(Nc1ccc2oc(N3CCCC(F)(F)C3)nc2c1)c1ccc2c(c1)CCO2` [Example 16, 2,3-Dihydro-benzofuran-5-carboxylic acid [2-(3,3-difluoro-pipeiidin-1-yl)-benzooxazol-5-yl]-amide], for which the IC50 amounted to 389 nM.

As for `O=C(Nc1ccc2oc(N3CC(N4CCOCC4)C3)nc2c1)c1ccc2c(c1)CCO2` [Example 17, 2,3-Dihydro-benzofuran-5-carboxylic acid [2-(3-morpholin-4-yl-azetidin-1-yl)-benzooxazol-5-yl]-amide], the IC50 was 2300 nM.

In the case of `CN(c1nc2cc(NC(=O)c3ccc4c(c3)CCO4)ccc2o1)C1(C)COC1` [Example 18, 2,3-Dihydro-benzofuran-5-carboxylic acid {2-[methyl-(3-methyl-oxetan-3-yl)-amino]-benzooxazol-5-yl}-amide], the IC50 turned out to be 568 nM.

Turning to `O=C(Nc1ccc2oc(N3CC(N4CCS(=O)(=O)CC4)C3)nc2c1)c1ccc2c(c1)CCO2` [Example 19, 2,3-Dihydro-benzofuran-5-carboxylic acid {2-[3-(1,1-dioxo-1l6-thiomoipholin-4-yl)-azetidin-1-yl]-benzooxazol-5-yl}-amide], the IC50 worked out at 2890 nM.

`CC1(O)CN(C2CN(c3nc4cc(NC(=O)c5ccc6c(c5)CCO6)ccc4o3)C2)C1` [Example 20, 2,3-Dihydro-benzofuran-5-carboxylic acid [2-(3-hydroxy-3-methyl-[1,3′]biazetidinyl-1′-yl)-benzooxazol-5-yl]-amide]: the half-inhibitory concentration (IC50) amounted to 1400 nM.

With `O=C(Nc1ccc2oc(N3CC4(CCO4)C3)nc2c1)c1ccc2c(c1)CCO2` [Example 21, 2,3-Dihydro-benzofuran-5-carboxylic acid [2-(1-oxa-6-aza-spiro[3.3]hept-6-yl)-benzooxazol-5-yl]-amide], the IC50 is 1610 nM.

On to `O=C(Nc1ccc2oc(N3CCC4(COC4)C3)nc2c1)c1ccc2c(c1)CCO2` [Example 22, 2,3-Dihydro-benzofuran-5-carboxylic acid [2-(2-oxa-6-aza-spiro[3.4]oct-6-yl)-benzooxazol-5-yl]-amide], for which the IC50 was 505 nM.

On to `O=C(Nc1ccc2oc(N3CC4(CCCOC4)C3)nc2c1)c1ccc2c(c1)CCO2` [Example 23, 2,3-Dihydro-benzofuran-5-carboxylic acid [2-(6-oxa-2-aza-spiro[3.5]non-2-yl)-benzooxazol-5-yl]-amide], for which the IC50 stood at 1470 nM.

Regarding `O=C(Nc1ccc2oc(N3CCCC34COC4)nc2c1)c1ccc2c(c1)CCO2` [Example 24, 2,3-Dihydro-benzofuran-5-carboxylic acid [2-(2-oxa-5-aza-spiro[3.4]oct-5-yl)-benzooxazol-5-yl]-amide], the IC50 was 352 nM.
